# Assay results as given in patent publication US11571426B2, “Compositions for preventing or treating lupus” (CHONG KUN DANG PHARMACEUTICAL CORP., priority 2017, dated 2023).
# Assays:
# [1] = test system: TNFα secretion in LPS-stimulated human monocyte cell lines (THP-1); assay: Suppression of TNFα secretion in LPS-stimulated THP-1 (ELISA); type: cell-based; details: at both 100 nM and 300 nM
# Description: To identify the efficacy of the inventive compounds on suppressing a TNFα secretion in immune responses, suppression of TNFα production, which was achieved by a treatment with compounds 374, 461, 500, 530 and 532 according to the present invention in LPS-stimulated human monocyte cell lines (THP-1), was quantified by means of an enzyme immuno-assay (ELISA).
# Specifically, the THP-1 cell lines (ATCC) were cultured in an RPMI-1640 medium comprising 10% FBS. The cell lines were divided into a 24 well plate at a ratio of 1×10^5 cells per well, then treated with 100 ng/mL PMA (phorbol 12-myristate 13-acetate) for 24 hours, and then differentiated into macrophage. Then, the culture medium was replaced with a new one, then treated with a test drug for 24 hours, and then treated again with 10 ng/mL LPS (E. Coli, O55:B5) for four hours for stimulation. After that, supernatant was taken and used to measure the amount of TNFα secreted from the cells by means of a Human TNFα Instant ELISA kit (eBioscience, BMS223INST) according to a protocol provided by a manufacturer.
# NZB/W F1 female mice [2] = assay: Renal histopathological evaluation in SLE model mouse; type: in vivo
# Description: (§1) 80 NZB/W F1 female mice (four weeks old) were purchased from Jackson Laboratory and maintained in an SPF breeding room with five mice per cage. Their weight and urine protein were measured at 24 weeks after birth (right before administration), and then all the animals except those having too much urine protein were divided into groups as shown in a table 2 below such that the urine protein and weight might be evenly distributed among the groups.
# (§2) Then, the mice were administered as described in the table 2 once a day for about 19 weeks from 24 weeks after birth to 42 weeks after birth.
# To identify an effect of the inventive pharmaceutical composition on kidney in the SLE disease model, a histopathological evaluation was performed.
# First of all, a half of a left kidney of a mouse collected during the autopsy was fixed with 10% neutral buffered formalin and prepared as a paraffin block. Then, a histopathological evaluation was performed by means of hematoxylin and eosin staining (H&E, BBC Biochemical, Mount Vernon, Wash., USA), periodic acid-schiff staining (PAS, BBC Biochemical) and Masson's trichrome staining (BBC Biochemical).
# NZB/W F1 female mice [3] = assay: IgG and C3 depositions in glomerulus (fluorescence immunostaining); type: in vivo, mouse
# Description: as §1, §2
# To identify a therapeutic effect of the inventive pharmaceutical composition on kidney in the SLE disease model, a degree of IgG and C3 depositions in glomerulus was measured.
# With regard to a remaining half of the left kidney collected during the autopsy performed in Example 9, a frozen tissue block was prepared for a frozen section by means of an OCT compound, and then IgG and C3 fluorescence immunostaining was performed by means of a method known in the technical field to which the present invention pertains.
# Specifically, the frozen tissue was sectioned in a thickness of 4 μm, then fixed in cold acetone for five minutes, and then washed in phosphate buffered saline (PBS) twice for five minutes. To get rid of a non-specific reaction, a resulting tissue was blocked by means of the PBS solution with the addition of 1% bovine serum albumin and 0.05% tween-20 for 30 minutes, and then reacted at room temperature for one hour by means of FITC-conjugated goat anti-mouse IgG antibodies (1:200, AP308F, Merck Millipore) or FITC-conjugated goat anti-mouse C3 antibodies (1:100, Cappel 55500, MP Bio). After that, the resulting tissue was washed with the PBS for five minutes three times, then covered with a cover glass by means of a mounting medium including DAPI, and then observed by means of a confocal laser scanning microscopy (LSM 700, ZEISS).
# NZB/W F1 female mice [4] = assay: Serum cytokine level (Milliplex MAP kit) in SLE disease mouse; type: in vivo
# Description: as §1, §2
# The fresh urine of mice was collected before and after administration every two weeks, while blood collection was performed before and after administration every four weeks. The serum was prepared by centrifugation of the collected blood and then kept at −70° C.
# To analyze an effect of the inventive pharmaceutical composition on a change in a serum cytokine level in the SLE disease mouse, a level of GM-CSF, IFN-γ, IL-1α, IL-1β, IL-10, IL-12(p70), IL-15, IL-17a, IL-2, IL-4, IL-6, TNF-α, […], IL-22 and IL-23 in serum was measured by means of a Mouse cytokine Milliplex MAP kit (Merck Millipore), wherein the results thereof were shown in a table 3.
# Data obtained from groups were compared using a Kruskal-Wallis (†p<0.05) *p<0.05 versus C group (Mann-Whitney U-test)
# NZB/W F1 female mice [5] = assay: Serum CXCL10 and CCL2 in SLE disease mouse; type: in vivo; details: 36 weeks old
# Description: as §1, §2
# Meanwhile, when a level of CXCL10 (IFN-inducible protein 10, IP-10) and CCL2 (MCP-1) in serum was measured at 36 weeks old, it was identified that the level of CXCL10 in serum was decreased in all the experimental groups, and the level of CCL2 in serum was decreased in the 50 mg/kg dosed group (FIG. 14).
# [6] = group D, 10 mg/kg/day i.p., n =10
# [7] = group E, 30 mg/kg/day i.p., n = 14
# [8] = group F, 50 mg/kg/day i.p., n = 14
# [9] = mice of the experimental groups
compound,measurement,setting,value
"O=C(NO)c1ccc(CN(C(=O)N2CCOCC2)c2cccc(C(F)(F)F)c2)cc1 [Compound 374, N-(4-(hydroxycarbamoyl)benzyl)-N-(3-(trifluoromethyl)phenyl)morpholine-4-carboxamide]",level of TNFα secretion,[1],remarkably decreased
same,infiltration of inflammatory cells in kidney (marks 0-4),NZB/W F1 female mice [2]; 30 and 50 mg/kg dosed groups,remarkably excellent effect of reducing the infiltration of inflammatory cells
same,degree of infiltration of inflammatory cells in kidney (marks 0-4),NZB/W F1 female mice [2]; experimental groups,decreased
same,level of C3 depositions in kidney,NZB/W F1 female mice [3]; 50 mg/kg dosed group,remarkably decreased
same,level of IgG depositions in kidney,NZB/W F1 female mice [3]; 50 mg/kg dosed group,remarkably decreased
same,level of C3 depositions in kidney,NZB/W F1 female mice [3]; experimental groups,decreased
same,level of IgG depositions in kidney,NZB/W F1 female mice [3]; experimental groups,decreased
same,GM-CSF in serum,NZB/W F1 female mice [4]; [6],2.65 ± 2.65 pg/mL
same,IFN-γ in serum,NZB/W F1 female mice [4]; [6],1.06 ± 1.06 pg/mL
same,IL17 in serum,NZB/W F1 female mice [4]; [6],10.40 ± 3.86 pg/mL
same,IL22 in serum,NZB/W F1 female mice [4]; [6],27.05 ± 9.95 pg/mL
same,IL-1α in serum,NZB/W F1 female mice [4]; [6],371.96 ± 82.72 pg/mL
same,IL-1β in serum,NZB/W F1 female mice [4]; [6],1.27 ± 0.65 pg/mL
same,IL-2 in serum,NZB/W F1 female mice [4]; [6],1.91 ± 1.77 pg/mL
same,IL-4 in serum,NZB/W F1 female mice [4]; [6],1.74 ± 0.19 pg/mL
same,IL-6 in serum,NZB/W F1 female mice [4]; [6],7.21 ± 2.34 pg/mL
same,IL-10 in serum,NZB/W F1 female mice [4]; [6],25.00 ± 8.01 pg/mL
same,IL-12(70) in serum,NZB/W F1 female mice [4]; [6],1.94 ± 1.17 pg/mL
same,IL-15 in serum,NZB/W F1 female mice [4]; [6],184.36 ± 88.58 pg/mL
same,IL-23 in serum,NZB/W F1 female mice [4]; [6],1.96 ± 1.96 pg/mL
same,TGF-β in serum,NZB/W F1 female mice [4]; [6],73356.45 ± 7258.05 pg/mL
same,TNF-α in serum,NZB/W F1 female mice [4]; [6],7.91 ± 2.67 pg/mL
same,GM-CSF in serum,NZB/W F1 female mice [4]; [7],5.32 ± 4.06 pg/mL
same,IFN-γ in serum,NZB/W F1 female mice [4]; [7],6.60 ± 4.07 pg/mL
same,IL17 in serum,NZB/W F1 female mice [4]; [7],21.14 ± 14.59 pg/mL
same,IL22 in serum,NZB/W F1 female mice [4]; [7],13.00 ± 4.40 pg/mL
same,IL-1α in serum,NZB/W F1 female mice [4]; [7],458.40 ± 90.79 pg/mL
same,IL-1β in serum,NZB/W F1 female mice [4]; [7],74.66 ± 70.56 pg/mL
same,IL-2 in serum,NZB/W F1 female mice [4]; [7],9.32 ± 4.75 pg/mL
same,IL-4 in serum,NZB/W F1 female mice [4]; [7],8.60 ± 6.80 pg/mL
same,IL-6 in serum,NZB/W F1 female mice [4]; [7],21.23 ± 13.62 pg/mL
same,IL-10 in serum,NZB/W F1 female mice [4]; [7],56.55 ± 39.16 pg/mL
same,IL-12(70) in serum,NZB/W F1 female mice [4]; [7],74.50 ± 63.63 pg/mL
same,IL-15 in serum,NZB/W F1 female mice [4]; [7],162.41 ± 53.62 pg/mL
same,IL-23 in serum,NZB/W F1 female mice [4]; [7],100.56 ± 100.56 pg/mL
same,TGF-β in serum,NZB/W F1 female mice [4]; [7],58807.36 ± 6685.72 pg/mL
same,TNF-α in serum,NZB/W F1 female mice [4]; [7],16.25 ± 13.46 pg/mL
same,GM-CSF in serum,NZB/W F1 female mice [4]; [8],1.89 ± 1.89 pg/mL
same,IFN-γ in serum,NZB/W F1 female mice [4]; [8],2.07 ± 1.44 pg/mL
same,IL-1α in serum,NZB/W F1 female mice [4]; [8],629.16 ± 128.47 pg/mL
same,IL-1β in serum,NZB/W F1 female mice [4]; [8],3.86 ± 2.09 pg/mL
same,IL-2 in serum,NZB/W F1 female mice [4]; [8],4.09 ± 2.63 pg/mL
same,IL-4 in serum,NZB/W F1 female mice [4]; [8],3.70 ± 1.73 pg/mL
same,IL-6 in serum,NZB/W F1 female mice [4]; [8],5.69 ± 2.39 pg/mL
same,IL-12(70) in serum,NZB/W F1 female mice [4]; [8],15.62 ± 12.09 pg/mL
same,IL-23 in serum,NZB/W F1 female mice [4]; [8],41.34 ± 41.34 pg/mL
same,TGF-β level,NZB/W F1 female mice [4]; [9],increased
same,serum concentration of IL-10,NZB/W F1 female mice [4]; [9],decreased
same,serum concentration of IL-12,NZB/W F1 female mice [4]; [9],decreased
same,serum concentration of IL-15,NZB/W F1 female mice [4]; [9],decreased
same,serum concentration of IL-17,NZB/W F1 female mice [4]; [9],decreased
same,serum concentration of IL-22,NZB/W F1 female mice [4]; [9],decreased
same,serum concentration of TNF-α,NZB/W F1 female mice [4]; [9],decreased
same,level of CCL2 in serum,NZB/W F1 female mice [5]; 50 mg/kg dosed group,decreased
same,level of CXCL10 in serum,NZB/W F1 female mice [5]; all the experimental groups,decreased
